# Results reported in patent publication US20230002377A1, “THERAPEUTIC COMBINATIONS OF DRUGS AND METHODS OF USING THEM” (HARMONY BIOSCIENCES, LLC, priority 2020, published 2023).
# Molecular target: Transporter, Dopamine (DAT) (Homo sapiens, UniProt Q01959)
# Experiment: DAT radioligand binding ([125I] RTI-55), Eurofins
# Conditions: read-out: DAT, % inhibition, 10 nM compound
# Description: Source: Human recombinant CHO—S cells;
# Incubation Time/Temp: 3 hours @ 4° C.;
# Incubation Buffer: 50 mM Tris-HCl, pH 7.4, 100 mM NaCl, 1 μM Leupeptin, 10 μM PMSF;
# Non-Specific Ligand: 10.0 μM Nomifensine;
# Specific Binding: 90% (Historical Values);
# Quantitation Method: Radioligand Binding;
# Chain of Transporter, Dopamine (DAT) (Q01959 whole entry): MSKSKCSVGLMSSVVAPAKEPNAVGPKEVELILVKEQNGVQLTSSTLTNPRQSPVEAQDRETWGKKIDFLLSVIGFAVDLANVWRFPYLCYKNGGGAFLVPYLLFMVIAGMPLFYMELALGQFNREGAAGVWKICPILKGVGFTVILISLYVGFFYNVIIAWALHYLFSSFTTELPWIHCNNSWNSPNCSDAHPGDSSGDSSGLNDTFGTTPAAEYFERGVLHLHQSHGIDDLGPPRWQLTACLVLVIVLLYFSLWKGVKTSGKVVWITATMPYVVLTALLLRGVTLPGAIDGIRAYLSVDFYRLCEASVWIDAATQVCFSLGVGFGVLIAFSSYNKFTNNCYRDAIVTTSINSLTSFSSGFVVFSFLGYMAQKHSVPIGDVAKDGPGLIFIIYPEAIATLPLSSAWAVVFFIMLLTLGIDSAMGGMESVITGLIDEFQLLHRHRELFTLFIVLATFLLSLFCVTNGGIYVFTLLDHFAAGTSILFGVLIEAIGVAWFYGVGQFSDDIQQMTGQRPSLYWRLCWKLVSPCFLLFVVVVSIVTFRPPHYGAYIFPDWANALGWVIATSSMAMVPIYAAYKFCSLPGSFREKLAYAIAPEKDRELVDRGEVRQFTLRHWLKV
smiles,measurement,value
"Clc1ccc(C2CNCc3cc(-c4ccc5ncnn5c4)ccc32)cc1Cl (stereo not shown) [Formula I, 7-([1,2,4]triazolo[1,5-a]pyridin-6-yl)-4-(3,4-dichlorophenyl)-1,2,3,4-tetrahydroisoquinoline]",inhibition at 0.01 µM,47%
